Data published in patent publication US20240252677A1, “ONE-COMPONENT DELIVERY SYSTEM FOR NUCLEIC ACIDS” (The Trustees of the University of Pennsylvania, priority 2021, published 2024).

Experiments:
BALB/c mice = assay: In vivo mRNA delivery in mice with DNPs, whole-body bioluminescence imaging (IVIS); details: for In vivo activity (total flux, p/s): Table 19, nonsymmetric IAJDs
Description: (§1) The exposure time was 1 min.
Luminescence characterization for in vivo transfection experiments employed bioluminescence imaging with an IVIS Spectrum imaging system (PerkinElmer, Waltham, MA). Mice were anesthetized with 3% of isoflurane (Piramal Healthcare Limited) and intraperitoneally (i.p.) administered with D-luciferin (Regis Technologies) at a dose of 150 mg/kg of body weight. Ten minutes post administration of D-luciferin, mice were placed on the imaging platform while being maintained on isoflurane via a nose cone and imaged using an exposure time of 60 seconds. […] To quantify luminescent flux, an oval ROI was placed over each organ of interest and analyzed.
(§2) Tissue luminescence signal was measured on the IVIS imaging system using an exposure time of 60 seconds using medium binning (binning=8) to ensure that the signal obtained was within operative detection range. […] Bioluminescence imaging was performed as described above.
Luminescence Characterization for In Vivo Transfection Experiments: bioluminescence imaging was performed with an IVIS Spectrum imaging system (PerkinElmer, Waltham, MA).

[1] = Stability of DNPs by DLS after storage at 5° C.; format: physicochemical; set-up: key to Original size distribution type (DLS curve) / Size distribution type (DLS curve): U: DLS curve showed unimodal size distribution; B: DLS curve showed bimodal size distribution; M: DLS curve showed multimodal size distribution; details: for pH Sample: DNPs: IAJD 4.0 mg/mL + Luc-mRNA 0.1 mg/mL, injection in acetate buffer pH 4.00; for PDI / Size (d, nm) / Original size distribution type (DLS curve): IAJD 4.0 mg/mL + Luc-mRNA 0.1 mg/mL; for PDI / Size (d, nm): acetate buffer; for Original size distribution type (DLS curve): before storage, acetate buffer pH 4.00
Description: (§3) The stability of the DNPs as assayed by DLS. All the samples are prepared in acetate buffer. The stabilities of the constructs were ranked: Excellent (in bold)—the original sizes and distribution remains almost the same after storage; Good—the original relatively big sizes became smaller or broad size distribution became narrower; Not stable—the original relatively big sizes or broad size distribution remained almost the similar level, or the original relatively small sizes became bigger or narrow size distribution became broader.

[2] = Stability of DNPs by DLS after storage at 5° C.; format: physicochemical; set-up: key: Excellent: the original sizes and distribution types remained almost the same after storage; Good: the original sizes and distribution types changed slightly (size difference was less than 100 nm) or the original size remained almost the same but the DLS curve showed more size distributions after storage
Description: as §3

HEK293T cells = assay: In vitro Luc-mRNA transfection, luciferase luminescence expression in HEK293T cells; format: cell-based, human; set-up: unit not given here; details: Table 16; HEK 293T cells, 125 ng/well, n=3
Summary of the method: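 HEK293T cells were transfected with nucleoside-modified firefly luciferase mRNA at 125 ng/well delivered in the test particles. TransIT and MC3-based LNPs at equal mRNA dose served as comparators. After 24 h (18-20 h in some runs) at 37° C the cells were lysed, and luciferase luminescence was read on a luminometer, in triplicate.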

liver = assay: In vivo mRNA delivery, IVIS imaging of organs: liver; set-up: species or system mice; key to Organs with luminescence: liver: strong: Strong meant the luminescence intensity in that organ was relatively high, compared to other organs; weak: Weak meant the luminescence intensity in that organ was relatively low, compared to other organs; details: Table 17; mice, IVIS, 4-6 h after injection; intensity relative to other organs
Description: as §1, §2
Tissue luminescence signal was measured on the IVIS imaging system using a certain exposure time (60, 30 or 15 seconds) and medium binning (binning=8) to ensure that the signal obtained was within operative detection range.

| pH Sample [1] | Size distribution type (DLS curve) ([1]; after 19 days at 5° C.) | PDI ([1]; after 19 days at 5° C.) | Size (d, nm) ([1]; after 19 days at 5° C.) | Original size distribution type (DLS curve) [1] | Ranking of stability ([2]; after 19 days at 5° C.) | SMILES | In vivo activity (total flux, p/s) (BALB/c mice) | Luminescence (HEK293T cells) | other results |
| --- | --- | --- | --- | --- | --- | --- | --- | --- | --- |
| 4.44 |  |  |  | (U) |  | CCCCCCCCCCCOc1cc(COC(=O)CCCN2CCN(CCO)CC2)cc(OCCCCCCCCCC)c1 [IAJD 115, 3-(Decyloxy)-5-(undecyloxy)benzyl 4-(4-(2-hydroxyethyl)piperazin-1-yl)butanoate] | 4.59 × 10^6 p/s | 390,021 | Size distribution type (DLS curve) ([1]; after 70 days at 5° C.): (U); PDI ([1]; after 70 days at 5° C.): 0.383; Size (d, nm) ([1]; after 70 days at 5° C.): 134 nm; Ranking of stability ([2]; after 70 days at 5° C.): Excellent |
| 4.93 | (U) | 0.259 | 86 nm | (U) | Excellent | CCCCCCCCCCCOc1cc(COC(=O)c2cc(OCCOCCOCCCC(=O)CCCN3CCCCC3)c(OCCOCCOCCOCc3ccccc3)c(OCCOCCOCCOC(=O)CCCN3CCCCC3)c2)cc(OCC(CC)CCCC)c1 (stereo not shown) [IAJD 155] |  | 74 |  |
| 4.72 |  |  |  | (U) |  | CCCCCCCCCCCCCCCCCOc1cc(CNC(=O)c2cc(OCCOCCOCCOC(=O)CCCN3CCCCC3)c(OCCCOCOCCOCc3ccccc3)c(OCCOCCOCCOC(=O)CCCN3CCCCC3)c2)cc(OCCCCCCCCCCCCCCCCC)c1 [IAJD 159] |  | 24,055 | increase of activity, amide vs ester interconnecting group (BALB/c mice; transition from 158(11/17) (ester) to 159(11/17) (amide)): about 6 fold; Size distribution type (DLS curve) ([1]; after 11 days at 5° C.): (U); PDI ([1]; after 11 days at 5° C.): 0.220; Size (d, nm) ([1]; after 11 days at 5° C.): 93 nm; Ranking of stability ([2]; after 11 days at 5° C.): Excellent |

The next lines start with the compound.

| SMILES | pH Sample [1] | Size distribution type (DLS curve) ([1]; after 19 days at 5° C.) | PDI ([1]; after 19 days at 5° C.) | Size (d, nm) ([1]; after 19 days at 5° C.) | Original size distribution type (DLS curve) [1] | Ranking of stability ([2]; after 19 days at 5° C.) | In vivo activity (total flux, p/s) (BALB/c mice) | Luminescence (HEK293T cells) | other results |
| --- | --- | --- | --- | --- | --- | --- | --- | --- | --- |
| CCCCCCCCCCCCCCCOc1cc(COC(=O)CCCN2CCN(CCO)CC2)cc(OCCCCCCCCCCCCCC)c1 [IAJD 148, 3-(Pentadecyloxy)-5-(tetradecyloxy)benzyl 4-(4-(2-hydroxyethyl)piperazin-1-yl)butanoate] | 4.46 | (B) | 0.374 | 405 nm | (U) | Good | 6.33 × 10^7 p/s | 139,420 | Organs with luminescence: liver (liver): liver (weak), |
| CCCCCCCCCCCCCCCOc1cc(COC(=O)CCCN2CCN(CCO)CC2)cc(OCCCCCCCCCCC)c1 [IAJD 119, 3-(Pentadecyloxy)-5-(undecyloxy)benzyl 4-(4-(2-hydroxyethyl)piperazin-1-yl)butanoate] | 4.36 |  |  |  | (M) |  | 8.22 × 10^7 p/s | 565,906 | Size distribution type (DLS curve) ([1]; after 62 days at 5° C.): (B); PDI ([1]; after 62 days at 5° C.): 0.489; Size (d, nm) ([1]; after 62 days at 5° C.): 254 nm; Ranking of stability ([2]; after 62 days at 5° C.): Good; Organs with luminescence: liver (liver): liver (weak), |
| CCCCCCCCCCCCOc1cc(COC(=O)c2cc(OCCOCCOCCCC(=O)CCCN3CCCCC3)c(OCCOCCOCCOCc3ccccc3)c(OCCOCCOCCOC(=O)CCCN3CCCCC3)c2)cc(OCCCCCCCCCCCC)c1 [IAJD 110] | 4.91 |  |  |  | (U) |  |  | 47 | Size distribution type (DLS curve) ([1]; after 75 days at 5° C.): (U); PDI ([1]; after 75 days at 5° C.): 0.222; Size (d, nm) ([1]; after 75 days at 5° C.): 103 nm; Ranking of stability ([2]; after 75 days at 5° C.): Excellent |
| CCCCCCCCCCCCCCCOc1cc(COC(=O)c2cc(OCCOCCOCCCC(=O)CCCN3CCCCC3)c(OCCOCCOCCOCc3ccccc3)c(OCCOCCOCCOC(=O)CCCN3CCCCC3)c2)cc(OCCCCCCCCCCC)c1 [IAJD 157] | 4.84 | (U) | 0.255 | 71 nm | (U) | Excellent |  | 47 |  |
